What was measured:
[1] = system: cytosolic enzymes that convert Formula Ia to Formula Ia′; assay: in vitro; settings: human
Method: (§3) All incubations contained 3 mM magnesium chloride and NADPH-generating system in 0.5 mL of 50 mM potassium phosphate buffer, pH 7.4. Prior to the addition of drug, incubation mixtures were preincubated for 2 min at 37° C. […] The incubation mixtures were vortexed and centrifuged (˜10,000 g) at 4° C. for 10 min; supernatants were analyzed by HPLC coupled with radiometric detector. Heat activated S9 cofactor or mitochondria were used as control. For LC-MS analysis, supernatants were concentrated in SpeedVac for 3 hrs. Incubation volumes were 0.5 mL and the final concentration of the organic solvents in the incubation system was less than 1% (v/v).
(§4) The mobile phase consisted of 10 mM ammonium acetate adjusted to pH 7.0 with 1% ammonium hydroxide (A) and 100% methanol (B).

[2] = system: cytosolic enzymes that convert Formula Ia to Formula Ia′; assay: Inhibition of metabolism of 14C-Formula Ia to Formula Ia′ in human liver cytosol; settings: human; for inhibition at 120 min: pH 7.4
Method: as §3, §4

[3] = In vivo inhibition study of Formula Ia with AKR competitor diflunisal, plasma PK; settings: cynomolgus monkeys plasma; as a function of diflunisal dose 0, 62.5, 125, 250 mg
Method: An in vivo study was conducted in cynomolgus monkeys where 200 mg Formula Ia and 0 (control), 62.5, 125, or 250 mg diflunisal (Dolobid) was administered as illustrated below. All six monkeys were first dosed with Formula Ia with blood samples collected over a 12 hr period for plasma pharmacokinetics (PK) of Formula Ia prior to administration of diflunisal (dose-escalation). Four doses of diflunisal were subsequently administered every 12 hr with Formula Ia administered at each 4th diflunisal dose after which blood samples were collected for PK assessment of Formula Ia. The following chart summarizes the timing of Formula Ia and diflunisal administration.

[4] = target: T1, AKR1C2 (Homo sapiens, UniProt P52895); assay: Incubation with S9 fraction of recombinant human AKR1C2; type: in vitro ADME; design: made in house; settings: 20 μM 14C-radiolabeled compound; S9 2.5 mg protein/mL; NADPH
T1 sequence (P52895 1-323): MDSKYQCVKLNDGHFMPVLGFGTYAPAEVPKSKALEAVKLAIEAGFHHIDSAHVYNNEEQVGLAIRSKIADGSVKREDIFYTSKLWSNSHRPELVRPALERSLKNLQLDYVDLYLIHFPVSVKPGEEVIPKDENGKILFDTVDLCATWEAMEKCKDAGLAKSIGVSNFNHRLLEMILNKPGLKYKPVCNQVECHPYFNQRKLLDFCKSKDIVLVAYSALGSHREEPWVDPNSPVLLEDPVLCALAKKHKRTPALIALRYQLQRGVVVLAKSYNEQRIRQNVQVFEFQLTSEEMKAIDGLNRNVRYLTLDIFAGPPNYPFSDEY
Method: (§1) Recombinant human AKRs (AKR1C2, AKR1C3 and AKR1C4) were grown, sonicated and centrifuged at ˜10,000 g to obtain S9 fractions. Incubations of ^14C-radiolabeled compound of Formula Ia, ^14C-radiolabeled compound of Formula Ib and ^14C-radiolabeled compound of Formula Ic (all at 20 μM) with S9-fractions from three recombinant human AKRs (2.5 mg protein/mL) were conducted as described above. [drawing 161]
(§2) The samples were analyzed by HPLC-coupled with radiometric detector and confirmed by LC-MS.

[5] = target: T2, AKR1C3 (Homo sapiens, UniProt P42330); assay: Incubation with S9 fraction of recombinant human AKR1C3; type: in vitro ADME; design: made in house; settings: 20 μM 14C-radiolabeled compound; S9 2.5 mg protein/mL; NADPH
T2 sequence (P42330 1-323): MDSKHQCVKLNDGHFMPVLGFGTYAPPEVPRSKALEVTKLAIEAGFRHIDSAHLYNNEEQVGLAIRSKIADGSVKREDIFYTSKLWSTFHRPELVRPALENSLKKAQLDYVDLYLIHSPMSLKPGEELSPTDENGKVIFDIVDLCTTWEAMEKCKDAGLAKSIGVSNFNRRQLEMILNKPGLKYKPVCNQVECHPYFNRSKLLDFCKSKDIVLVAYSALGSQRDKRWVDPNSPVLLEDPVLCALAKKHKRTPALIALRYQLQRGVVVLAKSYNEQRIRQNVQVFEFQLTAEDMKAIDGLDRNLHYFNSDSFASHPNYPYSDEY
Method: as §1, §2

[6] = system: cytosolic enzymes that convert Formula Ia to Formula Ia′; assay: Inhibition of metabolism of 14C-Formula Ia to Formula Ia′ in human liver S9; type: in vitro ADME; settings: human, pH 7.4
[7] = system: human liver cytosol
Method: as §3, §4

[8] = pH 7.4, % of Inhibition on Metabolite Formation of Compound Formula Ia
[9] = pH 7.4, % Inhibition on Metabolite Formation of Compound Formula Ia
[10] = pH 7.4, inhibited formation of the compound of Formula Ia′

## CC(C)=CCC/C(C)=C/COc1c2ccoc2cc2oc(=O)ccc12 [Bergamottin]
[1]; [8]
  inhibition at 2 h, 10 µM: 10%

## Cc1cccc(Nc2ccccc2C(=O)O)c1C [Mefenamic acid]
[1]; [8]
  inhibition at 2 h, 1 µM: 14.6%
  inhibition at 2 h, 10 µM: 51.1%

## O=C(O)Cc1ccccc1Nc1c(Cl)cccc1Cl [Diclofenac]
[1]; [8]
  inhibition at 2 h, 7 µM: 57.3%

## Cc1ncc2n1-c1ccc(Cl)cc1C(c1ccccc1F)=NC2 [Midazolam]
[2]
  inhibition at 120 min: 37%

## O=C(O)c1ccccc1Nc1cccc(C(F)(F)F)c1 [Flufenamic acid, N-(3-trifluoromethylphenyl)anthranilic acid]
[1]; [9]
  inhibition at 2 h, 100 µM: 80.3%
[1]; [10]
  inhibition at 120 min: 80.3%

## COc1ccc2c(c1)c(CC(=O)O)c(C)n2C(=O)c1ccc(Cl)cc1 [Indomethacin]
[1]; [9]
  inhibition at 120 min, 100 µM: 19%
  inhibition at 120 min, 100 μM: 19%
[1]; [8]
  inhibition at 2 h, 100 µM: 19%

## CC(C)(C)NC(=O)N[C@H](C(=O)N1C[C@H]2[C@@H]([C@H]1C(=O)N[C@@H](CC1CCC1)C(=O)C(N)=O)C2(C)C)C(C)(C)C [Formula Ic, (1R,2S,5S)—N-[(1S)-3-amino-1-(cyclobutylmethyl)-2,3-dioxopropyl]-3-[(2S)-2-[[[(1,1-dimethylethyl)amino]carbonyl]amino]-3,3-dimethyl-1-oxobutyl]-6,6-dimethyl-3-azabicyclo[3.1.0]hexane-2-carboxamide]
[3]
  AUC ratio (Formula Ia′ to AUC for the compound): decline
[4]
  metabolism by recombinant AKR1C2: preferentially metabolized

## CC1=C(CC(=O)O)c2cc(F)ccc2/C1=C\c1ccc([S+](C)[O-])cc1 (stereo not shown) [Sulindac]
[2]; pooled human liver cytosol, pH 7.4, probe 14C-radiolabeled compound of Formula Ia (20 μM), % of Inhibition on Metabolite Formation of Compound Formula Ia, Table 5, human liver cytosol, 2 hr incubation, 30 μM
  inhibition at 2 h, 30 µM: 19%

## CC(C)(C)NC(=O)N[C@H](C(=O)N1C[C@H]2[C@@H]([C@H]1C(=O)N[C@H](CC1CCC1)C(=O)C(N)=O)C2(C)C)C(C)(C)C [Formula Ib]
[3]
  AUC ratio (Formula Ia′ to AUC for the compound): decline
[5]
  metabolism by recombinant AKR1C3: preferentially metabolized

## O=C(c1ccccc1)c1ccc2n1CCC2C(=O)O (stereo not shown) [Ketorolac]
[1]; [8]
  inhibition at 2 h, 4 µM: 0%

## O=C(O)CCc1nc(-c2ccccc2)c(-c2ccccc2)o1 [Oxaprozin]
[1]; [8]
  inhibition at 2 h, 500 µM: 76.1%

## NC(=O)c1ncn([C@@H]2O[C@H](CO)[C@@H](O)[C@H]2O)n1 [Ribavirin]
[1]; [9]
  inhibition at 120 min, 10 μM: 1.76%
  inhibition at 120 min, 30 μM: 0%

## CC(C)Cc1ccc(C(C)C(=O)O)cc1 (stereo not shown) [Ibuprofen]
[1]; [9]
  inhibition at 120 min, 50 µM: 21.9%
  inhibition at 120 min, 50 μM: 31.3%
  inhibition at 120 min, 100 µM: 31.4%
  inhibition at 120 min, 100 μM: 33.4%
  inhibition at 120 min, 200 µM: 40.7%
  inhibition at 120 min, 200 μM: 43.3%
  inhibition at 120 min, 500 µM: 56.6%
  inhibition at 120 min, 1000 µM: 70%
  inhibition at 120 min, 1000 μM: 70%
[1]; [8]
  inhibition at 2 h, 200 µM: 43.3%
[1]; pH 7.4, inhibited metabolism of 14C-radiolabeled compound of Formula Ia
  inhibition at 120 min: 70%

## Cc1ccc(-c2cc(C(F)(F)F)nn2-c2ccc(S(N)(=O)=O)cc2)cc1 [Celecoxib]
[1]; [9]
  inhibition at 120 min, 2 μM: 8.42%
  inhibition at 120 min, 10 μM: 9.18%
  inhibition at 120 min, 50 μM: 20.5%
[1]; [8]
  inhibition at 2 h, 50 µM: 20.5%

## CN1C(=O)CN=C(c2ccccc2F)c2cc([N+](=O)[O-])ccc21 [Flunitrazepam]
[2]
  inhibition at 120 min: 51%

## CC(C(=O)O)c1cccc(Oc2ccccc2)c1 (stereo not shown) [Fenoprofen]
[1]; [8]
  inhibition at 2 h, 80 µM: 14.2%

## CCc1cccc2c3c([nH]c12)C(CC)(CC(=O)O)OCC3 (stereo not shown) [Etodolac]
[1]; [8]
  inhibition at 2 h, 100 µM: 3.74%

## CC(C(=O)O)c1ccc(-c2ccccc2)c(F)c1 (stereo not shown) [Flurbirofen]
[1]; [8]
  inhibition at 2 h, 50 µM: 31.6%

## Cc1ccc(C)c(OCCCC(C)(C)C(=O)O)c1 [Gemfibrozil, 5-(2,5-dimethylphenoxy)-2,2-dimethylpentanoic acid]
[1]; [9]
  inhibition at 120 min, 100 µM: 27.4%
  inhibition at 120 min, 100 μM: 27.4%

## CC1=CC(=O)c2ccccc2C1=O [Menadione]
[6]
  inhibition at 120 min, 100 µM: 18%
[1]; [9]
  inhibition at 2 h, 100 µM: 29.7%
[1]; [10]
  inhibition at 120 min, 100 µM: 30%

## COc1ccc2cc(CCC(C)=O)ccc2c1 [Nabumetone]
[1]; [8]
  inhibition at 2 h, 200 µM: 42.4%

## O=c1c(O)c(-c2ccc(O)c(O)c2)oc2cc(O)cc(O)c12 [Quercetin]
[6]
  inhibition at 120 min, 100 µM: 9.3%
[1]; [9]
  inhibition at 2 h, 100 µM: 33.4%
[1]; [10]
  inhibition at 120 min, 100 µM: 33.4%

## Oc1ncnc2[nH]ncc12 [Allopurinol]
[7]
  inhibited formation of the compound of Formula Ia′: no inhibition
[1]; [9]
  inhibition at 2 h, 100 µM: 2%

## O=C1OC(c2ccc(O)cc2)(c2ccc(O)cc2)c2ccccc21 [Phenolphthalein]
[1]; [9]
  inhibition at 120 min, 100 μM: 86.1%
[1]; [10]
  inhibition at 120 min: 86.1%

## C#CCN(C)Cc1ccccc1 [Pargyline]
[7]
  inhibited formation of the compound of Formula Ia′: no inhibition
[1]; [9]
  inhibition at 2 h, 1 µM: 0%

## Cc1ccc(C(=O)c2ccc(CC(=O)O)n2C)cc1 [Tolmetin]
[1]; [8]
  inhibition at 2 h, 125 µM: 2.14%

## O=C1C[C@@H](c2ccc(O)cc2)Oc2cc(O)cc(O)c21 [Naringenin]
[2]; pooled human liver cytosol, pH 7.4, probe 14C-radiolabeled compound of Formula Ia (20 μM), % of Inhibition on Metabolite Formation of Compound Formula Ia, Table 5, human liver cytosol, 2 hr incubation, 500 μM
  inhibition at 2 h, 500 µM: 86.7%
